This note sets out measurements from ChEMBL document CHEMBL4765306, “Design, synthesis and biological evaluation of novel naturally-inspired multifunctional molecules for the management of Alzheimer's disease” (Eur J Med Chem, 2020).

Test [1] deals with Cholinesterase (Equus caballus) (UniProt P81908). The experiment in a line: Inhibition of […] equine serum BuChE at 20 uM using butyryl thiocholine iodide as substrate preincubated for 30 mins followed by substrate addition and measured after 30 mins by spectrophotometry based Ellman's method relative to control. The class given is cell-free. The settings on record: time 60.0 min.
Sequence of Cholinesterase (Equus caballus) (P81908 whole entry): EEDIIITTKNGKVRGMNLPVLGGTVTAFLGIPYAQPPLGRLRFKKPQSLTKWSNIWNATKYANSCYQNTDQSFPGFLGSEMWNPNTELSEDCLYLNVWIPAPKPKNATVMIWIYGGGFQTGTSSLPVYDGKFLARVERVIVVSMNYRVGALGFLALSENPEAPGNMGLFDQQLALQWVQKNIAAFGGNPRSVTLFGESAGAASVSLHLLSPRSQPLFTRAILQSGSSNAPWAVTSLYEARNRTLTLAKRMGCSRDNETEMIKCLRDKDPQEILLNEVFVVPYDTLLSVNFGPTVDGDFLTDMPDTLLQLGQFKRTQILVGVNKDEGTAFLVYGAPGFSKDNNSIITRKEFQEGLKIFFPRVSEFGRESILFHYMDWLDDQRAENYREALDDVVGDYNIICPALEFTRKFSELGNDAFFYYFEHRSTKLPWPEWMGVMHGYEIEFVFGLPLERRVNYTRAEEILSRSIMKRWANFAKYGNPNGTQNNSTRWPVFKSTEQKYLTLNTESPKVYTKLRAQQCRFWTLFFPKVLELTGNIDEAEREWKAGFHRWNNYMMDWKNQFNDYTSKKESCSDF

The target in test [2] is T1, Acetylcholinesterase (Homo sapiens, UniProt P22303). The experiment in a line: Inhibition of recombinant human erythrocyte AChE using acetylthiocholine iodide as substrate preincubated for 30 mins followed by substrate addition and measured after 30 mins by spectrophotometry based Ellman's method. (In general: In Ellman's method for cholinesterases, released thiocholine reacts with DTNB.)
T1 sequence (P22303 whole entry): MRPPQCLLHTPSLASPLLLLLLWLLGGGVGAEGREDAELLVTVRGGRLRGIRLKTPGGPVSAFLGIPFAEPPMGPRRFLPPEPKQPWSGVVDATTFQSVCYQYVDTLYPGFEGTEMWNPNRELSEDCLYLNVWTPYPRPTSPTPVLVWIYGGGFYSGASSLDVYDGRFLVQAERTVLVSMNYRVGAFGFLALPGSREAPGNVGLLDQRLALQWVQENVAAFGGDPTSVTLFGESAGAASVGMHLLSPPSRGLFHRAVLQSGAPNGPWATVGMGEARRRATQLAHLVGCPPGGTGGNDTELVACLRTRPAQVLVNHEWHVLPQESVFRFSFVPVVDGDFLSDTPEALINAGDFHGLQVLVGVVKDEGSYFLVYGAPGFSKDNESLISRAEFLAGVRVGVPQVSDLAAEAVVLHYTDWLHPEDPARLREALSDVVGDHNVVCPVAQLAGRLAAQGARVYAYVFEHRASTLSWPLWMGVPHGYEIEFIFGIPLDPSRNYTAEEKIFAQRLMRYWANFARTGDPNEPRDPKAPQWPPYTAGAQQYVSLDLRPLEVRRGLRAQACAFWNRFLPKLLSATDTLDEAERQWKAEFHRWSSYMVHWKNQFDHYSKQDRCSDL

The nature of test [3]: Antioxidant activity assessed as DPPH radical scavenging activity incubated for 25 mins in shaker. The class given is functional. (The DPPH test is a chemical assay of radical scavenging.)
Test [4] in a line: Antioxidant activity assessed as DPPH radical scavenging activity at 20 uM incubated for 25 mins in shaker relative to control. The class given is functional.
For a further test, the target named is Cholinesterase (Equus caballus, UniProt P81908). In words: Inhibition of […] equine serum BuChE using butyryl thiocholine iodide as substrate preincubated for 30 mins followed by substrate addition and measured after 30 mins by spectrophotometry based Ellman's method. The class given is cell-free.
Sequence of Cholinesterase (P81908 whole entry): as the sequence (P81908 whole entry) above
Test [5] can be described thus: Metal chelating activity assessed as Fe3+-compound complex formation at 300 uM measured for 30 mins by MS-MS analysis.
A short description of test [6]: Metal chelating activity assessed as Fe3+-compound complex formation at 300 uM measured for 30 mins by UV-Visible spectrophotometric method.
The subject of test [7] is Mus musculus. The experiment in a line: Memory enhancement effect in scopolamine-induced Swiss albino mouse model of amnesia assessed as effect on total arm entries at 5 mg/kg, po administered for 7 days and observed after 30 mins before scopolamine treatment and measured after 15 mins by Y-maze test. The class given is functional, organism-based. As to conditions: time 7.0 day.

Test [8] deals with Mus musculus. The experiment in a line: Memory enhancement effect in scopolamine-induced Swiss albino mouse model of amnesia assessed as increase in spontaneous alteration at 5 mg/kg, po administered for 7 days and observed after 30 mins before scopolamine treatment and measured after 15 mins by Y-maze test. The class given is functional, organism-based. The settings on record: time 7.0 day.

Another test is filed under the species Homo sapiens. The experiment in a line: Disruption of human amyloid beta 1 to 42 assessed as effect on amyloid beta 1 to 42 morphology at 1.58 uM incubated for 10 days by atomic force microscopic analysis. The settings on record: time 10.0 day.
Test [9] deals with T1, Acetylcholinesterase. In words: Inhibition of AChE (unknown origin) at 20 uM relative to control.
The subject of test [10] is Mus musculus. In words: Memory enhancement effect in scopolamine-induced Swiss albino mouse model of amnesia assessed as effect on total arm entries at 12.5 to 25 mg/kg, po administered for 7 days and observed after 30 mins before scopolamine treatment and measured after 15 mins by Y-maze test. The class given is functional, organism-based. The settings on record: dose 12.5-25 mg/kg, time 7.0 day.

Test [11] has as its system Mus musculus. The experiment in a line: Ex vivo antioxidant activity in brain of scopolamine-induced Swiss albino mouse model of amnesia assessed as decrease in MDA level at 12.5 to 25 mg/kg, po administered for 7 days and observed after 30 mins before scopolamine treatment and measured after 15 mins. The class given is functional, organism-based. The settings on record: dose 12.5-25 mg/kg, time 7.0 day.

In test [12] the test system is Mus musculus. The experiment in a line: Ex vivo inhibition of BChE in brain of scopolamine-induced Swiss albino mouse model of amnesia at 12.5 to 25 mg/kg, po administered for 7 days and observed after 30 mins before scopolamine treatment and measured after 15 mins using butyryl thiocholine iodide as substrate by Ellman's method. The class given is functional, organism-based. The settings on record: dose 12.5-25 mg/kg, time 7.0 day.

Test [13] relates to Mus musculus. The experiment in a line: Ex vivo antioxidant activity in brain of scopolamine-induced Swiss albino mouse model of amnesia assessed as increase in SOD level at 12.5 to 25 mg/kg, po administered for 7 days and observed after 30 mins before scopolamine treatment and measured after 15 mins. The class given is functional, organism-based. The settings on record: dose 12.5-25 mg/kg, time 7.0 day.

In test [14] the test system is Mus musculus. In words: Ex vivo antioxidant activity in brain of scopolamine-induced Swiss albino mouse model of amnesia assessed as increase in CAT level at 12.5 to 25 mg/kg, po administered for 7 days and observed after 30 mins before scopolamine treatment and measured after 15 mins. The class given is functional, organism-based. The settings on record: dose 12.5-25 mg/kg, time 7.0 day.

In test [15] the target is Cholinesterase (Homo sapiens) (UniProt P06276). The experiment in a line: Inhibition of BuChE (unknown origin) at 20 uM relative to control.
Sequence of Cholinesterase (Homo sapiens) (P06276 whole entry): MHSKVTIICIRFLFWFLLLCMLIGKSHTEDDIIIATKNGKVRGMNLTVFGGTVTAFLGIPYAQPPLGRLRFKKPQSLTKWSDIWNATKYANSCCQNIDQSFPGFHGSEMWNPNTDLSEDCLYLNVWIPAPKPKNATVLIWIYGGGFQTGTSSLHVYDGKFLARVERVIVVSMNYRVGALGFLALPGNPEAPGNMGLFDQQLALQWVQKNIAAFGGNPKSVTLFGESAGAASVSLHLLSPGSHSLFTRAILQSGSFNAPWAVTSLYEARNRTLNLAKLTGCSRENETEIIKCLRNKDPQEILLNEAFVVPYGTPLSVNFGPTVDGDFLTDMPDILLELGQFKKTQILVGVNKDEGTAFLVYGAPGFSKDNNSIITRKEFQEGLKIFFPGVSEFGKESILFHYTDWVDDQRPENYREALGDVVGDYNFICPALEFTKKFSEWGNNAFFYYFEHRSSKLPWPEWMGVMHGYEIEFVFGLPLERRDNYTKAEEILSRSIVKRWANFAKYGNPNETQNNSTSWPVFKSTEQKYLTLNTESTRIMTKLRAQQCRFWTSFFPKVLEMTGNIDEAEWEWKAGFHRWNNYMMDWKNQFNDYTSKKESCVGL
The target of test [16] is T1, Acetylcholinesterase. In words: Inhibition of recombinant human erythrocyte AChE at 20 uM using acetylthiocholine iodide as substrate preincubated for 30 mins followed by substrate addition and measured after 30 mins by spectrophotometry based Ellman's method relative to control. As to conditions: time 60.0 min.
In test [17] the test system is Mus musculus. The experiment in a line: Memory enhancement effect in scopolamine-induced Swiss albino mouse model of amnesia assessed as increase in spontaneous alteration at 12.5 to 25 mg/kg, po administered for 7 days and observed after 30 mins before scopolamine treatment and measured after 15 mins by Y-maze test. The class given is functional, organism-based. As to conditions: dose 12.5-25 mg/kg, time 7.0 day.

The test system of test [18] is Mus musculus. The experiment in a line: Ex vivo inhibition of AChE in brain of scopolamine-induced Swiss albino mouse model of amnesia at 12.5 to 25 mg/kg, po administered for 7 days and observed after 30 mins before scopolamine treatment and measured after 15 mins using acetylthiocholine iodide as substrate by Ellman's method. The class given is functional, organism-based. The settings on record: dose 12.5-25 mg/kg, time 7.0 day.

Activity calls are given as the source filed them. The calls are words filed in the database; no cut-off is given here. Some results are limits rather than exact numbers.

Usually inhibition stands for the share of the control response that was lost under treatment. The term IC50 denotes the point on the concentration scale where inhibition reaches its midpoint. For `COc1cc(/C=C/C(=O)N2CCN(c3ccc(Cl)cc3)CC2)ccc1O`, the inhibition in [1] came out at 33.2%. In addition, on Acetylcholinesterase [2], the concentration for half-maximal inhibition (IC50) stood at 11.1 µM.

Regarding `COc1cc(/C=C/C(=O)N2CCN(c3ccc(C)cc3)CC2)ccc1O`, the inhibition in [1] amounted to 38.1%. Also, the half-inhibitory concentration (IC50) at Acetylcholinesterase [2] stood at 19.5 µM.

Turning to `COc1cc(/C=C/C(=O)NCC(=O)Nc2cccc(C#N)c2)ccc1O`, in test [1], the inhibition stood at 31.6%. Moreover, the IC50 at Acetylcholinesterase [2] was 16 µM.

`COc1cc(/C=C/C(=O)NCC(=O)Nc2ccc(C(F)(F)F)cc2)ccc1O`: the inhibition in [1] stood at 37.2%. The IC50 on Acetylcholinesterase [2] came out at 8.23 µM.

As for `COc1cc(/C=C/C(=O)NCC(=O)Nc2ccccc2)ccc1O`, in test [1], the inhibition worked out at 38.2%. Also, on Acetylcholinesterase [2], the IC50 was found to be 21.9 µM.

Consider `COc1cc(/C=C/C(=O)NCC(=O)Nc2ccccc2C(F)(F)F)ccc1O`, for which the inhibition in [1] stood at 43.2%. Also, at Acetylcholinesterase [2], the IC50 was determined as 15.1 µM.

On to `COc1cc(/C=C/C(=O)NCC(=O)Nc2cccc(C)c2)ccc1O`, for which the inhibition in test [1] worked out at 36.1%. Also, the half-maximal inhibitory concentration (IC50) at Acetylcholinesterase [2] is 18.9 µM.

As to `COc1cccc(N2CCN(C(=O)/C=C/c3ccc(O)c(OC)c3)CC2)c1`, in [1], the inhibition stood at 26.9%. Moreover, the half-maximal inhibitory concentration (IC50) turned out to be 9.91 µM at Acetylcholinesterase [2] and 62 µM in [3]. For the same compound, the Activity in test [4] worked out at 28.8%.

Take `COc1cc(/C=C/C(=O)NCC(=O)Nc2ccc(C#N)cc2)ccc1O`: the inhibition in test [1] was found to be 35.7%. For the same compound, the concentration for half-maximal inhibition (IC50) on Acetylcholinesterase [2] was determined as 17.4 µM.

In the case of `COc1cc(/C=C/C(=O)NCC(=O)Nc2cccc(Br)c2)ccc1O`, the inhibition in [1] is 36.6%. Besides, at Acetylcholinesterase [2], the IC50 was found to be 13.1 µM.

Consider `COc1cc(/C=C/C(=O)NCC(=O)Nc2ccc(Br)cc2)ccc1O`, for which, in [1], the inhibition was found to be 39.3%. Besides, the IC50 on Acetylcholinesterase [2] was found to be 10.2 µM.

For `COc1cc(/C=C/C(=O)NCC(=O)Nc2cccc(C(F)(F)F)c2)ccc1O`, in test [1], the inhibition is 34.9%. Also, the IC50 on Acetylcholinesterase [2] worked out at 9.31 µM.

On to `COc1cc(/C=C/C(=O)N2CCN(c3ccccc3)CC2)ccc1O`, for which the inhibition in test [1] was determined as 37%. For the same compound, the IC50 on Acetylcholinesterase [2] turned out to be 29.3 µM.

On to `COc1cc(/C=C/C(=O)NCC(=O)Nc2ccc(F)cc2)ccc1O`, for which the inhibition in [1] is 42.2%. The IC50 at Acetylcholinesterase [2] is 12.9 µM.

Regarding `COc1cc(/C=C/C(=O)NCC(=O)Nc2ccccc2C)ccc1O`, in test [1], the inhibition was determined as 36.8%. Besides, the half-inhibitory concentration (IC50) at Acetylcholinesterase [2] turned out to be 16.3 µM.

As to `COc1cc(/C=C/C(=O)NCC(=O)Nc2ccc(C)cc2)ccc1O`, the inhibition in test [1] stood at 35.6%. The IC50 on Acetylcholinesterase [2] worked out at 12.6 µM.

With `COc1cc(/C=C/C(=O)NCC(=O)Nc2cccc(Cl)c2)ccc1O`, the inhibition in [1] turned out to be 48.5%. Further, the 50% inhibitory concentration (IC50) stood at 5.68 µM at Acetylcholinesterase [2] and 108 µM in [3]. Further, the Activity in test [4] is 12.7%.

As to `COc1cc(/C=C/C(=O)NCC(=O)Nc2cccc(F)c2)ccc1O`, the inhibition in test [1] was 38.3%. Besides, the concentration for half-maximal inhibition (IC50) at Acetylcholinesterase [2] was 22.1 µM.

`COc1cc(/C=C/C(=O)NCC(=O)Nc2ccc3ncccc3c2)ccc1O`: in test [1], the inhibition came out at 57.7%. The half-inhibitory concentration (IC50) on Acetylcholinesterase [2] stood at 4.89 µM; at Cholinesterase, 14.3 µM; in [3] it was 77.6 µM. In addition, the Activity in test [4] turned out to be 18.6%.

With `COc1cc(/C=C/C(=O)NCC(=O)Nc2ccccc2Cl)ccc1O`, the inhibition in [1] was 47.4%. Besides, the half-maximal inhibitory concentration (IC50) at Acetylcholinesterase [2] was found to be 5.72 µM.

On to `COc1ccc(N2CCN(C(=O)/C=C/c3ccc(O)c(OC)c3)CC2)cc1`, for which the inhibition in test [1] is 44.7%. The IC50 at Acetylcholinesterase [2] came out at 12 µM.

Turning to `COc1cccc(NC(=O)CNC(=O)/C=C/c2ccc(O)c(OC)c2)c1`, the inhibition in test [1] was determined as 55.4%. For the same compound, the outcome in test [5] and in test [6] was Active. Moreover, the half-maximal inhibitory concentration (IC50) on Acetylcholinesterase [2] amounted to 2.42 µM; on Cholinesterase, 15.3 µM; in test [3], 94.3 µM. Moreover, the Activity in [4] came to 19.1%.

For the compound `COc1cc(/C=C/C(=O)NCC(=O)Nc2ccc(Cl)cc2)ccc1O`, the inhibition in test [1] stood at 46.9%. In addition, the half-inhibitory concentration (IC50) was determined as 3.43 µM on Acetylcholinesterase [2] and 101 µM in [3]. Further, the Activity in test [4] is 16.7%.

For `COc1cc(/C=C/C(=O)NCC(=O)Nc2ccccc2F)ccc1O`, the inhibition in [1] was found to be 31.9%. Besides, on Acetylcholinesterase [2], the IC50 turned out to be 17.2 µM.

`COc1cc(/C=C/C(=O)NCC(=O)Nc2ccccc2OC)ccc1O`: the inhibition in test [1] was 43.3%. For the same compound, the concentration for half-maximal inhibition (IC50) on Acetylcholinesterase [2] amounted to 5.75 µM.

`COc1cc2c(cc1OC)C(=O)C(CC1CCN(Cc3ccccc3)CC1)C2` (stereo not given): the result in the test on Mus musculus [7] and with Mus musculus [8] was Active. The outcome in the test filed under Homo sapiens was inactive.

For the compound `COc1cc(/C=C/C(=O)N2CCN(c3ccc(F)cc3)CC2)ccc1O`, the inhibition in test [1] turned out to be 27.7%. The IC50 on Acetylcholinesterase [2] is 11 µM.

In the case of `COc1cc(/C=C/C(=O)N2CCN(c3cccc([N+](=O)[O-])c3)CC2)ccc1O`, in [1], the inhibition came to 37.9%. In addition, on Acetylcholinesterase [2], the IC50 stood at 23.4 µM.

For the compound `COc1cc(/C=C/C(=O)O)ccc1O` [FERULATE], the inhibition in [1] is 19.7%; against Acetylcholinesterase [9], less than 20%; in [15], less than 20%; at Acetylcholinesterase [16], less than 10%. The result in the test with Mus musculus [10], in the test on Mus musculus [12], in the test on Mus musculus [17] and in the test on Mus musculus [18] was inactive. Moreover, the outcome in the test on Mus musculus [11], with Mus musculus [13], in the test on Mus musculus [14] and in the test listed under Homo sapiens was Active. Also, the 50% inhibitory concentration (IC50) in [3] is 56.5 µM. Moreover, the Activity in [4] was found to be 28.6%.

As to `COc1ccc(NC(=O)CNC(=O)/C=C/c2ccc(O)c(OC)c2)cc1`, the inhibition in test [1] was 49.9%. For the same compound, the half-inhibitory concentration (IC50) on Acetylcholinesterase [2] came to 17.3 µM; on Cholinesterase it was 19.5 µM; in [3], 91.2 µM. The Activity in test [4] came out at 23.6%.
